Data taken from patent publication US20190202885A1, “TauT (taurine transporter) peptide cancer vaccine” (priority 2017, published 2019).
Where no end group is shown, it is not given here.

Assays:
[1] = system: p53^+/− mice; assay: TauT-peptide vaccination of p53+/− mice: tumor development and lifespan; format: in vivo
Method: FIG. 2A and FIG. 2B. TauT-peptide vaccination prolongs p53^+/− mice lifespan. To evaluate the efficacy of TauT-peptide as a cancer vaccine, p53^+/− (C57BL/6J background) were injected with either TauT-peptide (100 μg/kg) or vehicle only at the age of 4 weeks and boosted 2 weeks later (n=15 for each group). All mice were observed daily for signs of morbidity and the development of tumors. The p53^+/− control mice started to develop tumor (mainly osteosarcoma) at the age of 186 day (FIG. 2A). The median lifespan for p53^+/− control mice was 315 days (FIG. 2B), which consistent with other studies. […] TauT-peptide vaccination delayed tumor develops in all vaccinated p53^+/− mice, which started to develop tumor (mainly osteosarcoma) and died at the age of 526 days (FIG. 2A).
TauT-peptide (SEQ ID NO 3) was coupled to KLH with a kit (Imject SuperCarrier EDC system for Peptides; Pierce). To test TauT-peptide vaccine, p53 knockout (KO) mice were immunized with 100 μg/kg and boosted with an equal amount of antigen 2 weeks late. To develop and test TauT-Ab, wild type control mice were immunized with 100 μg/kg TauT-peptide and boosted with an equal amount of antigen 2 weeks late. Mice were bled on Days 21 and 36 to measure the antibody response. Antisera were collected on Day 49 and purified by affinity column chromatography (Pierce). Antisera were stored at −80° C. Specificity of the antibody was determined by Western blot analysis (10).

[2] = system: p53^−/− mice; assay: TauT-peptide vaccination of p53−/− mice: tumor development and lifespan; format: in vivo
Method: To evaluate the efficacy of TauT-peptide as a cancer vaccine, p53^−/− (C57BL/6J background) were injected with either TauT-peptide (100 μg/kg) or vehicle only at the age of 4 weeks and boosted 2 weeks later (n=12 for each group). All mice were observed daily for signs of morbidity and the development of tumors.
To test TauT-peptide vaccine, p53 knockout (KO) mice were immunized with 100 μg/kg and boosted with an equal amount of antigen 2 weeks late. […] Mice were bled on Days 21 and 36 to measure the antibody response.
To evaluate the efficacy of TauT-peptide as a cancer vaccine, p53 null (C57BL/6J background) were injected with either TauT-peptide (100 μg/kg) or vehicle only at the age of 4 weeks and boosted 2 weeks later (n=12 for each group). All mice were observed daily for signs of morbidity and the development of tumors.

[3] = p53+/− mice, 100 μg/kg at 4 weeks of age, boosted 2 weeks later, n=15
[4] = p53−/− mice, 100 μg/kg at 4 weeks of age, boosted 2 weeks later
[5] = p53−/− mice, 100 μg/kg at 4 weeks of age, boosted 2 weeks later, n=12

TauT-peptide vaccine: TauT-peptide (SEQ ID NO 3) comprising amino acid residues 313-326 of TauT (SLC6A6), coupled to KLH, used as peptide vaccine (GSYNKYKYNSYRDC; also: coupled to KLH carrier, site not given here)
response to the vaccine ([1]; p53+/− mice vaccinated): 100% | age at which mice started to develop tumor (mainly osteosarcoma) and died [1, 3]: 526 days | median lifespan [1, 3]: 621 days | response to the vaccine ([2]; p53−/− mice vaccinated): 100% | age at which mice started to develop tumor (mainly lymphoma) and died [2, 4]: 6.3 months | lifespan [2, 4]: 6.9 months | age at which mice started to develop tumor (mainly lymphoma) [2, 5]: 189 days | median lifespan [2, 5]: 207 days | increase of (median) lifespan versus control ([2]; p53−/− mice, vaccinated vs vehicle control): 1.5 fold
